Where “and” joins values, the source holds several entries; their conditions need not be identical. Equal values may be shown once. Calls of active or inactive are those of the source. No cut-off for these calls is given here.
Experiments:
[1] = system: Mus musculus; assay: Anticonvulsant activity in Kunming mouse assessed as MES-induced hind limb extension at 100 mg/kg, ip administered 0. 5 to 4 hrs before MES stimulation relative to control; type: functional
[2] = system: Mus musculus; assay: Anticonvulsant activity in Kunming mouse assessed as MES-induced hind limb extension at 100 mg/kg, ip administered 0. 5 to 2 hrs before MES stimulation; type: functional, organism-based
[3] = Neurotoxicity against Kunming mouse assessed as time remained in rod at 100 mg/kg, ip administered 0.5 to 2 hrs by rotarod test; type: toxicity, organism-based; settings: in vivo
[4] = species: Homo sapiens; assay: Inhibition of human LDH1 at 0.5 mM using sodium pyruvate as substrate by UV-VIS spectrophotometry method relative to control
[5] = species: Homo sapiens; assay: Inhibition of human LDH5 at 0.5 mM using sodium pyruvate as substrate by UV-VIS spectrophotometry method relative to control
[6] = system: Mus musculus; assay: Anticonvulsant activity in Kunming mouse assessed as MES-induced hind limb extension at 100 mg/kg, ip administered 3 hrs before MES stimulation; type: functional, organism-based
[7] = Drug metabolism in Sprague-Dawley rat assessed as retention time by HPLC/MS analysis; type: ADME
[8] = system: Mus musculus; assay: Anticonvulsant activity in Kunming mouse assessed as MES-induced hind limb extension at 50 mg/kg, ip administered 0.5 to 4 hrs before MES stimulation relative to control; type: functional
[9] = (§1) Protective index, ratio of TD50 for neurotoxicity against ip dosed Kunming mouse assessed as time remained in rod measured at 0.5 hrs by rotarod test to ED50 for anticonvulsant activity in ip dosed Kunming mouse assessed as reduction in Sc3-MP-induced seizure administered 0.5 hrs before Sc3-MP stimulation; type: toxicity, organism-based; settings: in vivo, read-out: PI
[10] = system: Mus musculus; assay: Anticonvulsant activity in ip dosed Kunming mouse assessed as MES-induced hind limb extension administered 0.5 hrs before MES stimulation; type: functional
[11] = system: Mus musculus; assay: Anticonvulsant activity in Kunming mouse assessed as reduction in ScPTZ-induced seizure at 100 mg/kg, ip administered 0.25 and 1 hrs before ScPTZ stimulation relative to control; type: functional; design: scale not given: the % may be the effect or the level left
[12] = system: Mus musculus; assay: Anticonvulsant activity in Kunming mouse assessed as reduction in ScPTZ-induced clonic seizure at 100 mg/kg, ip administered 0.5 hrs before ScPTZ stimulation relative to control; type: functional; design: scale not given: the % may be the effect or the level left
[13] = system: Mus musculus; assay: Anticonvulsant activity in ip dosed Kunming mouse assessed as reduction in ScPTZ-induced seizure administered 0.5 hrs before ScPTZ stimulation; type: functional
[14] = system: Mus musculus; assay: Anticonvulsant activity in Kunming mouse assessed as reduction in Sc3-MP-induced seizure ip dosed measured at 0.5 hrs before Sc3-MP stimulation; type: functional
[15] = system: Mus musculus; assay: Anticonvulsant activity in Kunming mouse assessed as reduction in ScPTZ-induced seizure at 100 mg/kg, ip administered 0.25 to 2 hrs before ScPTZ stimulation relative to control; type: functional
[16] = as §1, with “formalin-induced paw licking” for “Sc3-MP-induced seizure”, “formalin” for “Sc3-MP”; type: toxicity, organism-based; settings: in vivo, read-out: PI
[17] = system: Mus musculus; assay: Anticonvulsant activity in Kunming mouse assessed as reduction in ScPTZ-induced seizure at 300 mg/kg, ip administered 0.25 to 2 hrs before ScPTZ stimulation relative to control; type: functional; design: scale not given: the % may be the effect or the level left
[18] = system: Mus musculus; assay: Anticonvulsant activity in Kunming mouse assessed as reduction in ScPTZ-induced tonic seizure rate at 300 mg/kg, ip administered 0.5 hrs before ScPTZ stimulation relative to control; type: functional; design: scale not given: the % may be the effect or the level left
[19] = Protective index, ratio of TD50 for neurotoxicity against ip dosed Kunming mouse assessed as time remained in rod measured at 0.5 hrs by rotarod test to ED50 for anticonvulsant activity in ip dosed Kunming mouse assessed as MES-induced hind limb extension administered 0.5 hrs; type: toxicity, organism-based; settings: in vivo, read-out: PI
[20] = system: Mus musculus; assay: […] activity in ip dosed Kunming mouse assessed as reduction in formalin-induced paw licking administered 0.5 hrs before formalin stimulation; type: functional
[21] = system: Mus musculus; assay: Anticonvulsant activity in Kunming mouse assessed as reduction in ScPTZ-induced mortality rate at 300 mg/kg, ip administered 0.5 hrs before ScPTZ stimulation relative to control; type: functional; design: scale not given: the % may be the effect or the level left
[22] = Neurotoxicity against ip dosed Kunming mouse assessed as time remained in rod measured at 0.5 hrs by rotarod test; type: toxicity, organism-based; settings: in vivo
[23] = system: Mus musculus; assay: Anticonvulsant activity in Kunming mouse assessed as reduction in Sc3-MP-induced clonic seizure rate at 300 mg/kg, ip administered 0.5 hrs before Sc3-MP stimulation relative to control; type: functional; design: scale not given: the % may be the effect or the level left
[24] = system: Mus musculus; assay: Anticonvulsant activity in Kunming mouse assessed as reduction in ScPTZ-induced tonic seizure rate at 100 mg/kg, ip administered 0.5 hrs before ScPTZ stimulation relative to control; type: functional; design: scale not given: the % may be the effect or the level left
[25] = as §1, with “ScPTZ-induced” for “Sc3-MP-induced”, “ScPTZ” for “Sc3-MP”; type: toxicity, organism-based; settings: in vivo, read-out: PI
[26] = system: Mus musculus; assay: Anticonvulsant activity in Kunming mouse assessed as reduction in Sc3-MP-induced tonic seizure rate at 300 mg/kg, ip administered 0.5 hrs before Sc3-MP stimulation relative to control; type: functional; design: scale not given: the % may be the effect or the level left
[27] = system: Mus musculus; assay: Anticonvulsant activity in Kunming mouse assessed as reduction in ScPTZ-induced clonic seizure at 300 mg/kg, ip administered 0.5 hrs before ScPTZ stimulation relative to control; type: functional; design: scale not given: the % may be the effect or the level left

Row | inhibition [4] | inhibition [5] | SMILES | Activity [1] | Activity [2] | Activity [3] | Activity [6] | further results
1 | < 5% | < 9% | COc1cc(OC)c(OC)cc1/C=C/COC(=O)/C=C/c1ccccc1Br | inactive | Active | Non-Toxic | – | –
2 | inactive | inactive | COc1cc(/C=C/C(=O)OC/C=C/c2cc(OC)c(OC)cc2OC)cc(OC)c1 | 25 - 100% | Active | Non-Toxic | – | –
3 | – | – | COc1ccc(OC)c(/C=C/C(=O)OC/C=C/c2cc(OC)c(OC)cc2OC)c1 | 25 - 100% | Active | Non-Toxic | Active | –
4 | < 5% | < 9% | COc1cc(OC)c(OC)cc1/C=C/COC(=O)/C=C/c1cccc(F)c1 | 25 - 100% | Active | Non-Toxic | Active | –
5 | – | – | COc1cc(OC)c(OC)c(OC)c1/C=C/C(=O)O[C@@H]1O[C@H](C(=O)O)[C@@H](O)[C@H](O)[C@H]1O | – | – | – | – | Retention_time [7]: 55.2 min
6 | inactive | inactive | COc1ccc(/C=C/C(=O)OC/C=C/c2cc(OC)c(OC)cc2OC)c(OC)c1 | 25 - 100% | Active | Non-Toxic | – | –
7 | < 5% | < 9% | COc1cc(OC)c(OC)cc1/C=C/COC(=O)/C=C/c1ccccc1F | inactive | Active | Non-Toxic | – | –
8 | < 5% | 9% | COc1cc(OC)c(OC)cc1/C=C/CNC(=O)/C=C/c1cc(OC)c(OC)c(OC)c1 | 25 - 100% | Active | Non-Toxic | – | –
9 | < 5% | < 9% | COc1cc(OC)c(OC)cc1/C=C/COC(=O)/C=C/c1cccc(Cl)c1 | 25 - 100% | Active | Non-Toxic | – | –
10 | inactive | inactive | COc1cc(OC)c(OC)cc1/C=C/COC(=O)/C=C/c1c(OC)cccc1OC | 25 - 100% | Active | Non-Toxic | Active | –
11 | – | – | COc1cc(OC)c(OC)c(OC)c1/C=C/C(=O)O | – | – | – | – | Retention_time [7]: 81.4 min

Row | SMILES | inhibition [4] | inhibition [5] | Activity [1] | Activity [2] | Activity [3] | Activity [6] | further results
12 | COc1cc(OC)c(OC)cc1/C=C/COC(=O)/C=C/c1ccc(Br)cc1 | < 5% | < 9% | 25 - 100% | Active | Non-Toxic | Active | Activity [8]: 50%; selectivity ratio at 0.5 h [9]: 5; ED50 [10]: 61.8 mg/kg and 143 µmol/kg; Activity [11]: 75%; Activity [12]: 100%; ED50 [13]: 446 µmol/kg and 193 mg/kg; ED50 [14]: > 300 mg/kg and > 692 µmol/kg; Activity [15]: inactive; selectivity ratio at 0.5 h [16]: 10.1; Activity [17]: 50%; Activity [18]: 25%; selectivity ratio at 0.5 h [19]: 17.1; ED50 [20]: 105 mg/kg and 243 µmol/kg; Activity [21]: 0%; TD50 at 0.5 h [22]: 2440 µmol/kg and 1060 mg/kg; Activity [23]: 100%; Activity [24]: 100%; selectivity ratio at 0.5 h [25]: 5.5; Activity [26]: 75%; Activity [27]: 100%

— ChEMBL document CHEMBL4311969, “Polygala tenuifolia-Acori tatarinowii herbal pair as an inspiration for substituted cinnamic α-asaronol esters: Design, synthesis, anticonvulsant activity, and inhibition of lactate dehydrogenase study” (Eur J Med Chem, 2019)
